Laboratory results from PubChem BioAssay AID179 (DTP/NCI, 2004).
The source made the active and inactive calls.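 The calls were made as follows: active = compounds giving half or more protection of infected cells from virus-caused growth loss, again on retest; inactive = the rest.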

System: CEM cells HIV-1 protection, formazan growth assay
Assay: NCI AIDS Antiviral Assay
Conditions: for IC50: measured here: growth of uninfected CEM cells
In short: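 Human CEM cells, uninfected and HIV-1-infected, received five drug concentrations, and growth was read by soluble formazan assay. Compounds giving at least 50% protection were retested; reproducible 100% protection defined confirmed active.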

Compound | EC50 [µM] | IC50 [µM] | outcome
CC1(C)NC(=O)[C@]2(C[C@@H](OC(=O)c3ccccc3)C=C2C=O)O1 | > 200 | 2.45 | –
COC(=O)/C=C/c1ccc2c(c1)CC1(Cc3ccccc3C1)C2 | > 200 | > 200 | –
CCOC(=O)c1sc(N/N=C2\NC(=O)/C(=C/c3ccc([N+](=O)[O-])cc3)S2)nc1C | > 200 | 135 | –
N#CC1(C#N)C(=O)c2ccncc2C1=O | > 200 | > 200 | –
C/C(=N\NS(=O)(=O)c1ccccc1)c1ccc(Cl)c(Cl)c1 | – | – | inactive
Cc1ccc(S(=O)(=O)OC2CSS(=O)CC2OS(=O)(=O)c2ccc(C)cc2)cc1 (stereo unspecified) | > 200 | 9.33 | –
CC(C)(C)OC(=O)c1ccc(NCc2cc(O)ccc2O)cc1 | > 200 | 3.16 | –
Cc1oc2c(c1C)S(=O)(=O)C(C#N)=C(N(C)C)N2 | > 200 | > 200 | –
CCCCCCOc1ccc(C(=O)N(C)O)cc1 | > 200 | 11.5 | –
CC1=NC(C(C)C)C(=O)O1 (stereo unspecified) | > 891 | > 891 | –
COC1=C2C=[N+](C)C3C(=C2C=CC1OC)Cc1cc2c(cc13)OCO2 (stereo unspecified) | > 631 | 3.63 | –
O=C1c2ccccc2C(C2c3ccccc3C(=O)c3ccccc32)c2ccccc21 | – | – | inactive
N#CC(C#N)C1CN2CCC1CC2 (stereo unspecified) | > 200 | > 200 | –
Brc1cccc(C=NC23CC4CC(CC(C4)C2)C3)c1 | > 16.2 | > 16.2 | –
CCCCCCCCCCCCCCCCOCC(COC1OC(COC(C)=O)C(OC(C)=O)C(OC(C)=O)C1OC(C)=O)OCCCCCCCCCCCCCCCC (stereo unspecified) | > 29.5 | > 29.5 | –
Cc1ccccc1N1C(=O)CC2(CCCC2)C1=O | > 363 | 214 | –
CN(C)c1c(C2OC(CO)C(O)C2O)c(=O)c1=O (stereo unspecified) | > 200 | > 200 | –
CCN(CC)C/C(C)=C(/c1ccccc1)c1ccccc1S(N)(=O)=O | > 200 | > 200 | –
N/C(=N/N=C/c1cc(Cl)ccc1O)N/N=C\c1cc(Cl)ccc1O | > 2 | 1 | –
N#Cc1c(C#N)c(-c2ccccc2)n(-c2ccccc2)c1N | > 200 | 53.7 | –
C=[N+]([O-])CCC1(O)C(CO[Si](C)(C)C(C)(C)C)OC(n2ccc(=O)[nH]c2=O)C1O[Si](C)(C)C(C)(C)C (stereo unspecified) | > 200 | 12 | –
Cc1c2c(n(CC(c3ccccc3)c3ccccc3)c1C)NN=C(C#N)S2(=O)=O | > 200 | > 100 | –

Compound | EC50 [µM] | IC50 [µM] | outcome
COc1ccc(C(=O)/C=C/c2cc(C(C)(C)C)c(O)c(C(C)(C)C)c2)cc1 | > 7.41 | > 7.41 | –
O=c1c2ccccc2[se]n1-c1ccccc1 | 1.62 | 17.8 | –
CCN(C(=O)c1ccc([N+](=O)[O-])cc1)C(c1ccccc1)P(=O)(c1ccccc1)c1ccccc1 (stereo unspecified) | – | – | inactive
C#CC(OC(=O)NC1CCCCC1)(c1ccccc1)c1ccccc1 | > 200 | 20.4 | –
O=S(=O)(c1ccccc1)C(CN1CCCCC1)S(=O)(=O)c1ccccc1 | – | – | inactive
CNc1ccc(C)cc1S(=O)(=O)c1ccc([N+](=O)[O-])cc1 | > 200 | > 200 | –
NC(=O)c1nc(C2OC(CO)C(O)C2O)cs1 (stereo unspecified) | > 200 | > 200 | –
NC(=O)CCNC(=O)c1ccccc1SC(=O)NCCBr | 1.38 | 10 | –
NS(=O)(=O)c1ccc(Nc2c3ccccc3nc3c(C(=O)NC(CO)(CO)CO)cccc23)cc1 | > 200 | 3.39 | –
O=C(CC1C(=O)c2ccccc2C1=C1C(=O)c2ccccc2C1=O)c1ccccc1 (stereo unspecified) | > 9.55 | 5.5 | –
Cn1c2ccccc2c(=NNc2ccc(S(=O)(=O)N=C(N)N)cc2)c2ccccc21 | > 200 | 5.5 | –
CC1CN(C2C=CC(=O)CC2)C(=O)NC1=O (stereo unspecified) | > 1120 | 7.76 | –
CC1(C)C(=O)/C=C\C(=O)C(C)(C)C2=CC=C(O2)C(C)(C)C(=O)/C=C\C(=O)C(C)(C)C2=CC=C1O2 | – | – | inactive
CN1C(=O)CC2CCC(=O)N2c2cccnc21 (stereo unspecified) | > 200 | > 200 | –
COC(=O)c1c(C)cccc1C1CN=NC12Cc1cccc(C)c1C2=O (stereo unspecified) | > 126 | 81.3 | –
Nc1ncnc2nc(C(O)C(O)C(O)CO)[nH]c12 (stereo unspecified) | > 102 | > 102 | –
CCOC(=O)c1[nH]c(-c2[nH]c(-c3[nH]c(-c4[nH]c(C(=O)OCC)c(C)c4C(=O)OCC)c(C(=O)OCC)c3C)c(C)c2C(=O)OCC)c(C(=O)OCC)c1C | > 200 | > 200 | –
Cc1[nH]nc2c1NC(=O)OC(C)(C)C2 | > 479 | > 479 | –
CC(C)N(C(=O)C12C3C4C5C3C1(C#N)C5C42)C(C)C (stereo unspecified) | > 195 | > 195 | –
CC12OOC(c3ccccc31)c1c2ccc2ccccc12 (stereo unspecified) | – | – | inactive
COc1ccc(-c2cc(-c3ccco3)c(C#N)c(=O)[nH]2)cc1 | > 24.5 | > 24.5 | –
CCCN=C(C(C)=O)N(C)C | > 1580 | 871 | –

Compound | EC50 [µM] | IC50 [µM] | outcome
COc1ccc(C2=C(OC(=O)N(C)C)c3cccn3-c3cc(C(F)(F)F)ccc3S2)cc1 | > 200 | > 200 | –
COc1ccc(C(C#N)NNc2nc(C)cc(=O)[nH]2)cc1OC (stereo unspecified) | > 794 | 234 | –
Cn1cc(NC(=O)c2cc(NC(=O)CN=C(N)N)cn2C)cc1C(=O)NCCC(=N)N | > 200 | > 200 | –
CN(C)c1nc(Cl)c2c(-c3ccccc3)c(-c3ccccc3)oc2n1 | – | – | inactive
CC(=O)/C(=C/n1c(=S)sc2ccccc21)C(=O)Nc1ccccc1C | > 200 | 170 | –
CC(=O)NC1C(=O)N(Cc2ccccc2)[C@@H]1COC(C)(C)C (stereo partly specified) | > 813 | > 813 | –
CSC(=S)N/N=C/c1nccc2ccccc12 | – | – | inactive
COCCNC1CCC2(SCCS2)c2[nH]c3ccccc3c21 (stereo unspecified) | > 200 | 39.8 | –
CCCCCCCCSC1OC(CO)C(O)C(O)C1O (stereo unspecified) | – | – | inactive
N#Cc1sc2c(c1O)c(=O)n(-c1ccccc1)c(=S)n2-c1ccccc1 | > 661 | 30.9 | –
COc1ccc2c(c1)CCc1c-2n(CCN(C)C)c2ccc(OC)cc12 | > 200 | 6.17 | –
Cc1cc(N(CCC#N)S(=O)(=O)c2ccccc2)ccc1C=Nc1ccc(C(=O)O)cc1 | > 151 | 85.1 | –
CC(=O)OC1CC2(C)C(OC(C)=O)CC1C2(C)C (stereo unspecified) | > 200 | > 200 | –
CN/N=C(/CCN1CCCC1)CC(c1ccccc1)c1c(O)c2ccccc2oc1=O (stereo unspecified) | > 93.3 | 74.1 | –
ClC(Cl)(Cl)SSC(=Nc1ccccc1)SSC(Cl)(Cl)Cl | > 200 | 4.79 | –
CC1OC(OCC2OC(Oc3ccc(C4CC(=O)c5c(O)cc(O)cc5O4)cc3O)C(O)C(O)C2O)C(O)C(O)C1O (stereo unspecified) | > 200 | > 200 | –
Brc1ccc(N=Nc2ccc3ccccc3n2)cc1 | > 93.3 | 91.2 | –
O=c1[nH]c2cc(Cl)c(Br)cc2o1 | 112 | 204 | –
COc1ccc2c(c1)CCc1c-2[nH]c2ccc(OC)cc12 | > 200 | > 200 | –
Cc1c(C(=O)CC(=O)C(=O)Nc2ccccc2C(F)(F)F)[n+](=O)c2ccccc2n1[O-] | > 4.57 | > 4.57 | –
CCOc1ccc(N=Nc2ccc3cc(/C(C)=N/NC(=O)/C(C#N)=C\c4ccc(N(CCC#N)CCC#N)cc4)c(=O)oc3c2)cc1 | > 200 | > 200 | –
